In data set [1] the test system is PANC-1. In words: Antiproliferative activity against human PANC-1 cells assessed as inhibition of cell growth measured after 48 hrs by MTT assay. In kind it is functional, cell-based. The settings on record: PANC-1, 48 h.
Data set [2] has as its system PANC-1. The experiment in a line: Inhibition of p53 R273H protein level in human PANC-1 cells at 15 uM measured after 24 hrs by Western blot analysis. The class given is functional, cell-based. (In western blotting, separated proteins are transferred to a membrane and probed.)
Data set [3] relates to PANC-1. The experiment in a line: Inhibition of colony formation in human PANC-1 cells assessed as decrease in colony numbers measured after 24 hrs by crystal violet staining based analysis. In kind it is functional, cell-based. The settings on record: dose 1-30 µM.
The test system of data set [4] is PANC-1. The experiment in a line: Antiproliferative activity against human PANC-1 cells assessed as inhibition of cell growth at upto 20 uM measured after 12 hrs by MTT assay. In kind it is functional, cell-based. (Formazan colour is commonly taken as a measure of viable cells.)
Data set [5] has as its system MIA PaCa-2. The experiment in a line: Antiproliferative activity against human MIA PaCa-2 cells assessed as suppression of cell growth at 30 uM measured after 48 hrs by MTT assay. The class given is functional, cell-based.
In data set [6] the test system is MIA PaCa-2. In words: Antiproliferative activity against human MIA PaCa-2 cells assessed as inhibition of cell growth measured after 48 hrs by MTT assay. The class given is functional, cell-based. As to conditions: MIA PaCa-2, 48 h.
Data set [7] concerns PANC-1. In words: Inhibition of cell migration in human PANC-1 cells at 10 uM incubated for 12 hrs by crystal violet staining based microscopic analysis. The class given is functional.
Data set [8] can be described thus: Antiproliferative activity against human HEK293 cells assessed as inhibition of cell growth measured after 48 hrs by MTT assay. In kind it is toxicity, cell-based.
Data set [9] can be described thus: Antiproliferative activity against human IMR-90 cells assessed as inhibition of cell growth measured after 48 hrs by MTT assay. The class given is toxicity, cell-based.
Data set [10] concerns MIA PaCa-2. In words: Inhibition of colony formation in human MIA PaCa-2 cells at 1 to 30 uM measured after 24 hrs by crystal violet staining based analysis. In kind it is functional, cell-based. The settings on record: dose 1-30 µM.
Data set [11] deals with MIA PaCa-2. The experiment in a line: Inhibition of cell migration in human MIA PaCa-2 cells at 10 uM incubated for 24 hrs by crystal violet staining based microscopic analysis. In kind it is functional.
Data set [12] in a line: Antiproliferative activity against human HPDE cells assessed as inhibition of cell growth measured after 48 hrs by MTT assay. In kind it is toxicity, cell-based.
For data set [13], the system named is PANC-1. The experiment in a line: Inhibition of p53 R273H mutant protein level in human PANC-1 cells at 10 uM measured after 24 hrs by Western blot analysis. The class given is functional, cell-based.
The subject of data set [14] is MIA PaCa-2. In words: Inhibition of p53 […] mutant protein level in human MIA PaCa-2 cells at 20 uM measured after 24 hrs by Western blot analysis. In kind it is functional, cell-based.

The values below come from ChEMBL document CHEMBL5523676, “Design, synthesis, and anti-cancer evaluation of C-14 arylcarbamate derivatives of andrographolide” (Bioorg Med Chem, 2024).

Active and inactive are the calls of the source. The calls are words filed in the database; no cut-off is given here.

By IC50 is commonly meant the concentration that gives 50% inhibition. For the compound `C=C1CC[C@@H]2[C@]3(C)COC(C)(C)O[C@@H]3CC[C@@]2(C)[C@@H]1C/C=C1/C(=O)OC[C@H]1OC(=O)Nc1cccc(C#N)c1`, the IC50 in the data set with PANC-1 [1] was found to be 15.2 µM. Besides, in the data set on PANC-1 [2], the inhibition entry is “Active”.
Take `C=C1CC[C@@H]2[C@]3(C)COC(C)(C)O[C@@H]3CC[C@@]2(C)[C@@H]1C/C=C1/C(=O)OC[C@H]1OC(=O)Nc1ccc(NC(C)=O)cc1`: the IC50 in the data set with PANC-1 [1] was above 30 µM.
With `C=C1CC[C@@H]2[C@]3(C)COC(C)(C)O[C@@H]3CC[C@@]2(C)[C@@H]1C/C=C1/C(=O)OC[C@H]1OC(=O)Nc1cccc(C(F)(F)F)c1`, the IC50 in the data set on PANC-1 [1] is above 30 µM.
`C=C1CC[C@@H]2[C@](C)(CO)[C@H](O)CC[C@@]2(C)[C@@H]1C/C=C1/C(=O)OC[C@H]1O` [ANDROGRAPHOLIDE]: in the data set with PANC-1 [3], the inhibition result is “Dose-Dependent Effect”. The outcome in the data set on PANC-1 [4] was inactive. Moreover, the IC50 in the data set with PANC-1 [1] turned out to be 20.4 µM; in the data set on MIA PaCa-2 [6], 21.1 µM. In the data set on MIA PaCa-2 [5], the outcome was Active. Moreover, the inhibition entry with PANC-1 [7] is “Active”.
For the compound `C=C1CC[C@@H]2[C@]3(C)COC(C)(C)O[C@@H]3CC[C@@]2(C)[C@@H]1C/C=C1/C(=O)OC[C@H]1OC(=O)Nc1ccccc1`, in the data set with PANC-1 [3], the inhibition entry was “Dose-Dependent Effect”. The outcome in the data set with PANC-1 [4] was inactive. Besides, the half-maximal inhibitory concentration (IC50) at 48 h in data set [8], in [9] and in data set [12] was above 30 µM each time. Moreover, the IC50 in the data set on PANC-1 [1] is 9.56 µM; in the data set with MIA PaCa-2 [6], 25.7 µM. Moreover, the inhibition entry in the data set on MIA PaCa-2 [10], with MIA PaCa-2 [11], in the data set with PANC-1 [13], in the data set with MIA PaCa-2 [14] and in the data set with PANC-1 [7] was “Active” throughout. Further, the result in the data set with MIA PaCa-2 [5] was Active.
On to `C=C1CC[C@@H]2[C@]3(C)COC(C)(C)O[C@@H]3CC[C@@]2(C)[C@@H]1C/C=C1/C(=O)OC[C@H]1OC(=O)Nc1cccc(Br)c1`, for which the IC50 with PANC-1 [1] was determined as 16 µM.
As to `C=C1CC[C@@H]2[C@]3(C)COC(C)(C)O[C@@H]3CC[C@@]2(C)[C@@H]1C/C=C1/C(=O)OC[C@H]1OC(=O)Nc1cc(F)ccc1F`, the IC50 is 15.1 µM with PANC-1 [1] and above 30 µM in the data set on MIA PaCa-2 [6]. The inhibition entry in the data set on PANC-1 [2] is “Active”.
For `C=C1CC[C@@H]2[C@]3(C)COC(C)(C)O[C@@H]3CC[C@@]2(C)[C@@H]1C/C=C1/C(=O)OC[C@H]1OC(=O)Nc1ccc(F)cc1F`, the IC50 in the data set with PANC-1 [1] was above 30 µM. The result in the data set with MIA PaCa-2 [5] was Active.
Turning to `C=C1CC[C@@H]2[C@]3(C)COC(C)(C)O[C@@H]3CC[C@@]2(C)[C@@H]1C/C=C1/C(=O)OC[C@H]1OC(=O)Nc1ccc(Cl)cc1`, the IC50 in the data set on PANC-1 [1] turned out to be 29.1 µM.
On to `C=C1CC[C@@H]2[C@]3(C)COC(C)(C)O[C@@H]3CC[C@@]2(C)[C@@H]1C/C=C1/C(=O)OC[C@H]1OC(=O)Nc1ccc(Br)cc1`, for which the figures for the IC50 in the data set with PANC-1 [1] and in the data set with MIA PaCa-2 [6] were 10.2 µM and above 30 µM, respectively.
In the case of `C=C1CC[C@@H]2[C@]3(C)COC(C)(C)O[C@@H]3CC[C@@]2(C)[C@@H]1C/C=C1/C(=O)OC[C@H]1OC(=O)Nc1ccc([N+](=O)[O-])cc1`, the IC50 with PANC-1 [1] was found to be 13.6 µM.
For the compound `C=C1CC[C@@H]2[C@]3(C)COC(C)(C)O[C@@H]3CC[C@@]2(C)[C@@H]1C/C=C1/C(=O)OC[C@H]1OC(=O)Nc1cccc(OC)c1`, the IC50 in the data set with PANC-1 [1] is 10.8 µM.
As to `C=C1CC[C@@H]2[C@]3(C)COC(C)(C)O[C@@H]3CC[C@@]2(C)[C@@H]1C/C=C1/C(=O)OC[C@H]1OC(=O)Nc1cccc(C(C)=O)c1`, the half-inhibitory concentration (IC50) was 10.9 µM with PANC-1 [1] and above 30 µM in the data set with MIA PaCa-2 [6]. Besides, the inhibition result with PANC-1 [13] and in the data set on MIA PaCa-2 [14] was “Active” each time.
Consider `C=C1CC[C@@H]2[C@]3(C)COC(C)(C)O[C@@H]3CC[C@@]2(C)[C@@H]1C/C=C1/C(=O)OC[C@H]1OC(=O)Nc1cc(C)cc(C)c1`, for which the concentration for half-maximal inhibition (IC50) with PANC-1 [1] was above 30 µM.
